Type in all cases: cell-based, human
The test system of experiment [1] is HUVEC. The experiment can be described thus: HUVEC morphogenesis on MATRIGEL (in vitro angiogenesis, tubular length). The note with it: 12-18 hours; SPM and C1P 1 μM. As to the method: FIG. 42 is microscope images showing morphogenesis of HUVEC cells plated on Matrigel. HUVEC cells were transduced with 50 MOI of indicated viruses; a,b=none, c=β-gal, d=wild-type EDG-1, e=T236AEDG-1, f=T236AEDG-1+wild-type Akt. Total viral load in c-f is normalized. In vitro angiogenesis assay on Matrigel was conducted in the presence (b to f) or not (a) of 100 nM S1P. The numbers are mean±s.e.m of total tubular length per microscopic field (n=2). Scale bar=170 μm.
To investigate SPP induction of angiogenesis, 200 μL aliquots of thawed MATRIGEL were polymerized in 24-well tissue culture plates. HUVEC were trypsinized, resuspended in plain M199 medium containing soybean trypsin inhibitor (10 mg/mL, Sigma Chemical Co., St. Louis, Mo.). Following centrifugation (250 g; 5 minutes), cells were resuspended in plain M199 supplemented with 2% CFBS at a density of 1.5×10^5 cells/mL. 200 μL of cell suspension were seeded on these gels in the presence or absence of SPP (Biomol), for 12-18 hours. Cells were rinsed two times with phosphate buffered saline (PBS), and then fixed with 4% formaldehyde. Results were recorded photographically using a Zeiss Axiovert 100TV microscope equipped with a 5× objective. Five random fields of each well were photographed, and total tubular length was quantified by image analysis (Kinsella, J. et al., Experimental Cell Research 199: 56-62 (1992); Gamble J., et al., J. Cell Biol. 121: 931-943 (1993)).
Scale bar represents 52 microns. These quantitative data are the mean±standard deviation of duplicate determinations from a representative experiment which was repeated at least three times. SPP concentrations (in μM) are indicated in parentheses. For SPP +PTx, HUVEC were pretreated with PTx (200 ng/mL) for 2 hours, trypsinized, plated onto MATRIGEL, then stimulated with 500 nM SPP in the presence of PTx (20 ng/mL) for 16-18 hours. For SPP+C3, HUVEC were pretreated with C3 exoenzyme (10 μg/mL) for 48 hours, trypsinized, plated onto MATRIGEL, stimulated with 500 nM SPP together with the same concentration of C3 exotoxin. SPM, sphingomyelin (1 μM). For C1P, C8-ceramide-1-phosphate (1 μM). The maximal effects achieved by 1 μM SPP was indistinguishable from the positive control medium which contained FBS.
In these experiments, HUVEC were plated onto MATRIGEL in the presence of the same amount of corresponding antibodies without or with 500 nM SPP. 16 hours later, total length of HUVEC networks formed on MATRIGEL was quantified.

Another experiment deals with ERK-2. The experiment can be described thus: ERK-2 immune complex kinase assay in HUVEC. The note with it: SPP 10-500 nM, 10 minutes, starved HUVEC. The procedure:
As a second functional assay, ERK-2 kinase activity was measured in response to SPP treatment. For these experiments, endothelial cells were starved for 19 hours, and then stimulated with SPP for 10 minutes. Cells were then lysed, and ERK-2 kinase activity was measured by an immune complex kinase assay using myelin basic protein (MBP) as substrate. Some cells were pretreated with pertussis toxin (PTx) at 200 ng/mL, or PD98059 at 10 μM for 2 hours prior to stimulation.

The subject of experiment [2] is HUVEC. Nature of the experiment: Actin cytoskeleton (stress fibers, cortical actin) in HUVEC, phalloidin staining. The note with it: 500 nM SPP, 30 minutes. The procedure: SPP is known to induce Rho-dependent actin stress fibers in NIH3T3 fibroblasts. To disclose Rho- or Rac-dependence, HUVEC were plated at 2×10^5 cells in 35 mm glass bottom petri dishes (Plastek cultureware, Mat Tek Corporation, Ashland Mass.). Two days later, recently confluent cells were washed and changed to medium M199 supplemented with 10% dialyzed charcoal-stripped fetal bovine serum (CFBS) and growth factors for 16 hours. Approximately 500-800 cells were then microinjected cytoplasmically with Rho inhibitor C3 exoenzyme (0.1 μg/μL, Calbiochem) or dominant negative N17Rac protein (0.35 μg/μl; Ridley, A., et al., Cell 70: 401-410 (1992)) using Femtotips (Eppendorf) at 100 hPa/0.2 sec. Injected cells were marked by coinjection of FITC-rabbit IgG (5 mg/mL, Cappel).
Subsequently, cells were treated with or without SPP. After treatment cells were washed with ice-cold PBS, fixed with 4% formaldehyde at room temperature or methanol at −20° C. for 15 minutes. In the case of formaldehyde fixation, cells were permeabilized with 0.2% Triton X-100 (TX-100). Actin microfilaments were visualized by staining with either FTOC- or TRITC-conjugated phalloidin (0.05 μg/mL, Sigma) for 30 minutes at room temperature.

Regarding `CCCCCCCCCCCCC/C=C/[C@@H](O)[C@@H](N)COP(=O)(O)O` [SPP, sphingosine-1-phosphate], the “HUVEC morphogenesis on MATRIGEL (tubular length)” value in the experiment with HUVEC [1] is “promoted HUVEC morphogenesis in a dose-dependent manner”. In the experiment on ERK-2, the ERK activity entry is “activated ERK activity in a dose-dependent manner”. Also, in the experiment with HUVEC [2], the “formation of stress fibers and cortical actin” value is given as “induced the formation of stress fibers”.

The values above are taken from patent US20020142982A1, “Method for regulating angiogenesis” (priority 1999, published 2002).
